According to patent US20090318565A1, “Novel Compositions for the Enhancement of the Anti-oxidant Potential of Hydrogenated Curcuminoids or Combinations Thereof” (priority 2008, published 2009):
≈ marks a conversion by molar mass, not a printed value.

How the values were obtained:
[1] = tested on: Swiss 3T3 mouse fibroblast cells; test: ROS scavenging assay (DCFH-DA dye, oxidation initiated by FeSO4); type: cell-based; settings: for IC50: Mus musculus, Swiss-3T3, DCFH-DA, FeSO4, 1 hr at 37° C., fluorescence 485/520 nm, called SC50, read-out: % Inhibition (IC50 μg/ml) ROS scavenging in Swiss 3T3 fibroblast cell line
Protocol: The DPPH free radical scavenging activity is studied based on the stable free radical 1,1-diphenyl-2-picryl hydrazyl radical (DPPH) which, in presence of an antioxidant in organic/aqueous organic media is bleached and the decrease of absorbance of DPPH is measured spectrophotometrically at 516 nm. The assay mixture containing DPPH methanolic solution & methanolic solutions of various concentrations of the antioxidant is incubated at 37 degree C. for 30 minutes. The reduction in absorbance is measured spectrophotometrically at 516 nm. The free radical scavenging activity is expressed as SC50, the concentration of the sample required for 50% of the free radical to be scavenged. The ROS scavenging assay is based on a cell permeable, non-fluorescent dye, de-esterified DCFH-DA (dichloro fluorescein diacetate) being converted to dichlorofluorescein upon oxidation by the reactive oxygen species. […] Swiss 3T3 mouse fibroblast cells are cultured in DMEM medium with 10% FBS. 1×10^5 cells per well are plated into a 96 well black plate. After treatment with varying concentrations of the samples, the cells are exposed to DCFH-DA dye and oxidation initiated by FeSO4. […] The fluorescence intensity is directly proportional to the ROS scavenging activity of the samples. The activity is expressed as SC50 which is the concentration required for 50% scavenging of ROS.

[2] = DPPH free radical scavenging assay; type: biochemical; settings: methanolic solution, 37 degree C. for 30 minutes, absorbance at 516 nm; called SC50
Protocol: The DPPH free radical scavenging activity is studied based on the stable free radical 1,1-diphenyl-2-picryl hydrazyl radical (DPPH) which, in presence of an antioxidant in organic/aqueous organic media is bleached and the decrease of absorbance of DPPH is measured spectrophotometrically at 516 nm. The assay mixture containing DPPH methanolic solution & methanolic solutions of various concentrations of the antioxidant is incubated at 37 degree C. for 30 minutes. The reduction in absorbance is measured spectrophotometrically at 516 nm. The free radical scavenging activity is expressed as SC50, the concentration of the sample required for 50% of the free radical to be scavenged. The ROS scavenging assay is based on a cell permeable, non-fluorescent dye, de-esterified DCFH-DA (dichloro fluorescein diacetate) being converted to dichlorofluorescein upon oxidation by the reactive oxygen species. The scavenging activity of sample is indicated by the decrease in fluorescence (wavelength 485/520 nm). Swiss 3T3 mouse fibroblast cells are cultured in DMEM medium with 10% FBS. […] After incubation for 1 hr at 37° C., the fluorescence reading is taken at wavelength 485/520 nm (Fluostar optima microplate reader). The fluorescence intensity is directly proportional to the ROS scavenging activity of the samples. The activity is expressed as SC50 which is the concentration required for 50% scavenging of ROS.

O=C(CCc1ccc(O)cc1)CC(=O)CCc1ccc(O)cc1 [STR#1, 1,7-Bis(4-hydroxyphenyl)-3,5-heptanedione]
pro-oxidant properties of hydrogenated derivative against bisdemethoxycurcumin ([1]; upon hydrogenation): enhanced

COc1cc(CCC(=O)CC(=O)CCc2ccc(O)c(OC)c2)ccc1O [STR#II, 1,7-Bis(4-hydroxy-3-methoxyphenyl)-3,5-heptanedione]
IC50 [1]: 1.35 µg/mL (≈ 3.62 µM)
anti-oxidant activity of hydrogenated derivative against curcumin ([1]; upon hydrogenation): enhanced

COc1cc(CCC(=O)CC(=O)CCc2ccc(O)cc2)ccc1O [STR#V, 1-(4-hydroxy-3-methoxyphenyl)-7-(4-hydroxyphenyl)-3,5-heptanedione]
IC50 [1]: 4.5 µg/mL (≈ 13.1 µM)
enhancement of anti-oxidant properties upon hydrogenation (ROS scavenging activity) ([1]; hydrogenated derivative against demethoxycurcumin): about 10 fold
SC50 [2]: 3.0 µg/mL
